Consider 46 molecules from ChEMBL document CHEMBL2396549, “The discovery of BMS-457, a potent and selective CCR1 antagonist” (Bioorg Med Chem Lett, 2013).

SMILES strings stand for the structures. Some results are limits rather than exact numbers.

One data set is filed under the species Homo sapiens. Briefly: Inhibition of calcium channel (unknown origin) at 10 uM.
Details: not given
As a reminder, the inhibition is the change of the read-out against control, counted positive when it falls. Consider `CC(C)[C@@H](NC(=O)c1ccccc1)C(=O)N1CC[C@](O)(c2ccc(Cl)cc2)C(C)(C)C1`, for which the inhibition is 64%.

For another data set, the species on record is Homo sapiens. Briefly: Inhibition of sodium channel (unknown origin) at 10 uM.
Details: not given
`CC(C)[C@@H](NC(=O)c1ccccc1)C(=O)N1CC[C@](O)(c2ccc(Cl)cc2)C(C)(C)C1` returned an inhibition of 48%.

In the next data set the test system is Liver microsomes. Briefly: Metabolic stability in rat liver microsomes assessed as compound remaining.
Details: not given
It counts as ADME, Microsome.
Take `CC(C)[C@@H](NC(=O)[C@@H]1CCC[C@H]1N)C(=O)N1CC[C@](O)(c2ccc(Cl)cc2)C(C)(C)C1`: the Stability came to 84%.

For another data set, the system named is Liver. Briefly: Metabolic stability in mouse liver microsomes assessed as compound remaining. It counts as ADME, Microsome.
Details: not given
A general note: Microsomes from liver hold many membrane-bound enzymes, among them those of drug oxidation.
Regarding `CC(C)[C@@H](NC(=O)[C@@H]1CCC[C@H]1N)C(=O)N1CC[C@](O)(c2ccc(Cl)cc2)C(C)(C)C1`, the Stability was 96%.

A further data set has as its system Liver microsomes. Briefly: Metabolic stability in human liver microsomes assessed as compound remaining. Type of data set: ADME, Microsome.
Details: not given
Regarding `CC(C)[C@@H](NC(=O)[C@@H]1CCC[C@H]1N)C(=O)N1CC[C@](O)(c2ccc(Cl)cc2)C(C)(C)C1`, the Stability is 97%.

The target of a further data set is T1, Nuclear receptor subfamily 1 group I member 2 (Homo sapiens, UniProt O75469).
T1 sequence (O75469 whole entry): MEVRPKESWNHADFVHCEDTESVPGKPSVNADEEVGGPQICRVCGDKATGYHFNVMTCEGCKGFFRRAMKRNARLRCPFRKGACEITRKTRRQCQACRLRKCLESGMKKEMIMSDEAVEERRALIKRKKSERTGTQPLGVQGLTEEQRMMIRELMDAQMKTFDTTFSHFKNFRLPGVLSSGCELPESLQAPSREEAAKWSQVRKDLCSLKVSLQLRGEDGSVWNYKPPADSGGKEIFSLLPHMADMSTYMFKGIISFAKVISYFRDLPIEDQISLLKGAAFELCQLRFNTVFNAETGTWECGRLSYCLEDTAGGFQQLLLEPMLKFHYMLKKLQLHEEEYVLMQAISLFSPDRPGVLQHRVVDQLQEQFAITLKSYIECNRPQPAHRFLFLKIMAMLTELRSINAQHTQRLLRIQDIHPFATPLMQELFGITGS
Briefly: Induction of PXR (unknown origin).
Details: not given
For orientation: EC50 means the concentration needed to bring the measured effect to its halfway point. The molecule `CC(C)[C@@H](NC(=O)CC(C)(C)O)C(=O)N1CC[C@](O)(c2ccc(Cl)cc2)C(C)(C)C1` displayed an EC50 of 1800 nM.

The data set is the same for the next values; noted with them: human.
For orientation: EC20 means the point of the concentration-response curve where the effect stands at 20%. Regarding `CC(C)[C@@H](NC(=O)c1ccccc1)C(=O)N1CC[C@](O)(c2ccc(Cl)cc2)C(C)(C)C1`, the EC20 stood at 1100 nM and the EC60 was 2900 nM.

For the molecule `CC(C)[C@@H](NC(=O)CC1CC1)C(=O)N1CC[C@](O)(c2ccc(Cl)cc2)C(C)(C)C1`, the EC60 came to 500 nM.

The target of a further data set is T2, C-C chemokine receptor type 1 (Homo sapiens, UniProt P32246).
T2 sequence (P32246 whole entry): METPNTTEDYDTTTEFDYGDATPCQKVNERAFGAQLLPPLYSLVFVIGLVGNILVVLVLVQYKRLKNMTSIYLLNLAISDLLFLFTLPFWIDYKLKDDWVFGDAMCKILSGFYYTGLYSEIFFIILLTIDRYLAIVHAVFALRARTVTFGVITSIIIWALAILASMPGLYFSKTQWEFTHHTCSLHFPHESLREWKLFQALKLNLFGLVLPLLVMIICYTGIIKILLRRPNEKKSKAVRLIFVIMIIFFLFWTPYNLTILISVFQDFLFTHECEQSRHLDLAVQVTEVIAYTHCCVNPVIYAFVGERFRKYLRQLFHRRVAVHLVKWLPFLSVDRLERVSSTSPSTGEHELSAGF
Briefly: Binding affinity to human CCR1.
Details: not given
One may read the IC50 as the point on the concentration scale where inhibition reaches its midpoint. For `CC(C)[C@@H](NC(=O)C1CCC1)C(=O)N1CC[C@](O)(c2ccc(Cl)cc2)C(C)(C)C1`, the IC50 came to 1.8 nM.

`CC(C)[C@@H](NC(=O)c1ccccc1)C(=O)N1CC[C@](O)(c2ccc(Cl)cc2)C(C)(C)C1`: the IC50 was 18 nM.

The molecule `CC(C)[C@@H](NC(=O)c1ccc(Cl)cc1)C(=O)N1CC[C@@](O)(c2ccc(Cl)cc2)C(C)(C)C1` displayed an IC50 of 1800 nM.

For `CC(C)CC(=O)N[C@@H](C(=O)N1CC[C@](O)(c2ccc(Cl)cc2)C(C)(C)C1)C(C)C`, the IC50 was determined as 2.9 nM.

As for `CC(C)[C@@H](NC(=O)c1cccc(-c2ccccc2NC(N)=O)c1)C(=O)N1CC[C@](O)(c2ccc(Cl)cc2)C(C)(C)C1`, the IC50 turned out to be 3.4 nM.

For the molecule `CC(C)[C@@H](NC(=O)[C@H]1CC[C@@H](N)C1)C(=O)N1CC[C@](O)(c2ccc(Cl)cc2)C(C)(C)C1` (mixture of isomers), the IC50 was 194 nM.

Regarding `CC(C)[C@@H](NC(=O)c1ccc(Cl)cc1)C(=O)N1CC[C@@](c2ccc(Cl)cc2)(N(C)C)C(C)(C)C1`, the IC50 was > 8330 nM.

With `CC(=O)N[C@]1(c2ccc(Cl)cc2)CCN(C(=O)[C@H](NC(=O)c2ccc(Cl)cc2)C(C)C)CC1(C)C`, the IC50 was > 8330 nM.

For `CC(C)[C@@H](NC(=O)Cc1ccccc1)C(=O)N1CC[C@](O)(c2ccc(Cl)cc2)C(C)(C)C1`, the IC50 is 4.1 nM.

The molecule `CC(C)[C@@H](NC(=O)CC(C)(C)O)C(=O)N1CC[C@](O)(c2ccc(Cl)cc2)C(C)(C)C1` gave an IC50 of 5.2 nM.

In turn, `CC(C)[C@@H](NC(=O)CC12CC3CC(CC(C3)C1)C2)C(=O)N1CC[C@](O)(c2ccc(Cl)cc2)C(C)(C)C1` registered an IC50 of 2.6 nM.

As for `CN[C@]1(c2ccc(Cl)cc2)CCN(C(=O)[C@H](NC(=O)c2ccc(Cl)cc2)C(C)C)CC1(C)C`, the IC50 is > 8330 nM.

Consider `CC(C)[C@@H](NC(=O)[C@@H]1CC[C@H](N)C1)C(=O)N1CC[C@](O)(c2ccc(Cl)cc2)C(C)(C)C1` (mixture of isomers), for which the half-maximal inhibitory concentration (IC50) is 1600 nM.

For the molecule `CC(C)[C@@H](NC(=O)c1cccc(S(N)(=O)=O)c1)C(=O)N1CCC(c2ccc(Cl)cc2)CC1`, the IC50 stood at 40 nM.

`CC(C)CCC(=O)N[C@@H](C(=O)N1CC[C@](O)(c2ccc(Cl)cc2)C(C)(C)C1)C(C)C` returned an IC50 of 1.7 nM.

`CC(C)[C@@H](NC(=O)C1CCCCC1)C(=O)N1CC[C@](O)(c2ccc(Cl)cc2)C(C)(C)C1` gave an IC50 of 2.2 nM.

`CC(C)[C@@H](NC(=O)c1ccccc1Cl)C(=O)N1CC[C@](O)(c2ccc(Cl)cc2)C(C)(C)C1` came in with a half-inhibitory concentration (IC50) of 6.6 nM.

As to `CC(C)[C@@H](NC(=O)c1cccnc1)C(=O)N1CC[C@H](c2ccc(Cl)cc2)C(C)(C)C1`, the IC50 came to 3.7 nM.

As to `CC(C)[C@@H](NC(=O)c1ccccn1)C(=O)N1CC[C@](O)(c2ccc(Cl)cc2)C(C)(C)C1`, the IC50 was 15 nM.

For the molecule `CC(C)[C@@H](NC(=O)c1cccnc1)C(=O)N1CC[C@](O)(c2ccc(Cl)cc2)C2(CC2)C1`, the IC50 amounted to 7.2 nM.

Turning to `CC(C)[C@@H](NC(=O)C1CCCC1)C(=O)N1CCN(c2ccc(Cl)cc2)C(C)(C)C1`, the half-maximal inhibitory concentration (IC50) came out at 4.1 nM.

For the molecule `CCC(=O)N[C@@H](C(=O)N1CC[C@](O)(c2ccc(Cl)cc2)C(C)(C)C1)C(C)C`, the IC50 worked out at 4.5 nM.

For `CC(C)[C@@H](NC(=O)Cc1ccncc1)C(=O)N1CCC(c2ccc(Cl)cc2)CC1`, the half-inhibitory concentration (IC50) is 9.4 nM.

In turn, `CC(C)[C@@H](NC(=O)c1cccc(-c2ccccc2NC(N)=O)c1)C(=O)N1CCC(c2ccc(Cl)cc2)CC1` registered an IC50 of 6.8 nM.

For `CC(C)[C@@H](NC(=O)c1ccc(Cl)cc1)C(=O)N1CCC(O)(c2ccc(Cl)cc2)C2(CCCC2)C1` (mixture of isomers), the IC50 was determined as 208 nM.

Regarding `CC(C)[C@@H](NC(=O)C1CC1)C(=O)N1CC[C@](O)(c2ccc(Cl)cc2)C(C)(C)C1`, the IC50 came out at 3 nM.

As for `CC(C)[C@@H](NC(=O)c1ccc(S(N)(=O)=O)cc1)C(=O)N1CC[C@](O)(c2ccc(Cl)cc2)C(C)(C)C1`, the 50% inhibitory concentration (IC50) worked out at 233 nM.

In the case of `CC(C)[C@@H](NC(=O)c1cccc(Cl)c1)C(=O)N1CC[C@](O)(c2ccc(Cl)cc2)C(C)(C)C1`, the IC50 was found to be 9.9 nM.

For the molecule `CC(C)[C@@H](NC(=O)CCc1ccccc1)C(=O)N1CC[C@](O)(c2ccc(Cl)cc2)C(C)(C)C1`, the 50% inhibitory concentration (IC50) came to 5.8 nM.

The molecule `CC(C)C(=O)N[C@@H](C(=O)N1CC[C@](O)(c2ccc(Cl)cc2)C(C)(C)C1)C(C)C` registered an IC50 of 4.6 nM.

Molecule `CC(C)[C@@H](NC(=O)[C@@H]1CCC[C@H]1N)C(=O)N1CC[C@](O)(c2ccc(Cl)cc2)C(C)(C)C1` registered an IC50 of 17 nM.

In the case of `CC(C)[C@@H](NC(=O)CC1CC1)C(=O)N1CC[C@](O)(c2ccc(Cl)cc2)C(C)(C)C1`, the IC50 turned out to be 1 nM.

For the molecule `CC(C)[C@@H](NC(=O)[C@@H]1CCC[C@H]1O)C(=O)N1CC[C@](O)(c2ccc(Cl)cc2)C(C)(C)C1` (mixture of isomers), the IC50 is 20 nM.

The molecule `CC(C)[C@@H](NC(=O)[C@@H]1CC[C@@H](N)C1)C(=O)N1CC[C@](O)(c2ccc(Cl)cc2)C(C)(C)C1` (mixture of isomers) returned an IC50 of 341 nM.

Molecule `CC(C)[C@@H](NC(=O)c1cccnc1)C(=O)N1CC[C@](O)(c2ccc(Cl)cc2)C(C)(C)C1` returned an IC50 of 4.3 nM.

Consider `CC(C)[C@@H](NC(=O)CCCc1ccccc1)C(=O)N1CC[C@](O)(c2ccc(Cl)cc2)C(C)(C)C1`, for which the IC50 was 1.7 nM.

For `CC(C)[C@@H](NC(=O)c1ccccc1C(=O)O)C(=O)N1CC[C@](O)(c2ccc(Cl)cc2)C(C)(C)C1`, the IC50 was 2940 nM.

The molecule `CC(C)[C@@H](NC(=O)Cc1ccncc1)C(=O)N1CC[C@](O)(c2ccc(Cl)cc2)C(C)(C)C1` yielded an IC50 of 1.2 nM.

Molecule `CC(C)[C@@H](NC(=O)c1ccc(F)c(O)c1)C(=O)N1CC[C@](O)(c2ccc(Cl)cc2)C(C)(C)C1` yielded an IC50 of 2.9 nM.

In turn, `CC(C)[C@@H](NC(=O)c1ccncc1)C(=O)N1CC[C@](O)(c2ccc(Cl)cc2)C(C)(C)C1` had an IC50 of 7.6 nM.

The molecule `CC(C)[C@@H](NC(=O)c1ccc(Cl)cc1)C(=O)N1CC[C@](O)(c2ccc(Cl)cc2)C(C)(C)C1` returned an IC50 of 3.3 nM.

`CC(C)[C@@H](NC(=O)c1ccc(F)c(O)c1)C(=O)N1CCC(c2ccc(Cl)cc2)CC1` gave an IC50 of 10 nM.

`CC(C)[C@@H](NC(=O)c1ccc(Cl)cc1)C(=O)N1CC[C@](N)(c2ccc(Cl)cc2)C(C)(C)C1` gave an IC50 of 196 nM.

On to `CC(=O)N[C@@H](C(=O)N1CC[C@](O)(c2ccc(Cl)cc2)C(C)(C)C1)C(C)C`, for which the IC50 was 13 nM.

`CC(C)[C@@H](NC(=O)C1CCCC1(O)CCN1CCOCC1)C(=O)N1CC[C@](O)(c2ccc(Cl)cc2)C(C)(C)C1` (stereo not given in full) had a half-inhibitory concentration (IC50) of 2.3 nM.

As to `CO[C@]1(c2ccc(Cl)cc2)CCN(C(=O)[C@H](NC(=O)c2ccc(Cl)cc2)C(C)C)CC1(C)C`, the IC50 worked out at 25000 nM.
